From paper PMC3997752, “Molecular characterization of Plasmodium falciparum uracil-DNA glycosylase and its potential as a new anti-malarial drug target” (Malaria Journal, 2014)

B1: UGI: UGI protein of B. subtilis bacteriophage PBS1 (New England BioLabs), a well-known UDG inhibitor (protein, UniProt P14739 1-84, looked up)
Uracil-DNA glycosylase …: MTNLSDIIEKETGKQLVIQESILMLPEEVEEVIGNKPESDILVHTAYDESTDENVMLLTSDAPEYKPWALVIQDSNGENKIKML

What was measured:
human UDG = system: human UDG; parameters: method as in PMID 8391260; details: purified human HeLa UDG; cited from earlier work
recombinant PfUDG = recombinant PfUDG (Plasmodium falciparum, UniProt Q8ILU6, P157T); experiment: Inhibition of recombinant PfUDG activity (32P-labelled oligo-U glycosylase assay); assay type: biochemical; details: for Inhibitory effect of UGI on recombinant PfUDG: 1:1 molar ratio of PfUDG and UGI
Protocol: (§1) The UDG activity assay (20 μl) consisted of standard reaction buffer containing 20 mM Tris–HCl pH 8.0, 1 mM DTT, 1 mM EDTA, 50 mM NaCl, 100 μg/ml BSA, 10 pmol ^32P-labelled oligo-U, and 20 ng of PfUDG at 37°C for 20 min. The glycosylase activity was stopped by heating at 100°C for 1 min, the resulting apurinic/apyrimidinic site (AP site) was incised by hot alkaline treatment with 0.1 M NaOH (final concentration) at 95°C for 10 min, and the reaction was neutralized with 0.1 M HCl (final concentration). The AP lyase activity assay of PfUDG was examined under the same condition as UDG activity assay except without hot alkaline treatment. Reaction products were analysed on 8 M urea-16% denaturing PAGE and exposed to X-ray film for autoradiography for visualization. The radioactive intensity of sliced substrate and product bands from the gel were measured in a 1450 MicroBeta® Trilux Liquid Scintillation Counter (Perkin Elmer) as counts per minute (cpm). The amounts of substrate and product (pmol) were determined from radioactive intensity. One unit of activity is defined as the amount of PfUDG required for releasing 1 pmol of uracil in 1 min at 37°C in standard reaction buffer (20 mM Tris–HCl pH 8.0, 50 mM NaCl, 1 mM EDTA, 1 mM DTT, and 100 μg/ml BSA) with ^32P-labelled single stranded oligo-U substrate.
Two types of UDG inhibitors, UGI protein and synthetic uracil-derived compounds, were tested for their inhibitory effects on PfUDG. UGI protein of B. subtilis bacteriophage PBS1 (New England BioLabs) was used against native and recombinant PfUDG with 10 pmol ^32P-labelled single stranded oligo-U in the standard reaction buffer at 37°C for 20 min. The synthetic uracil-derived compounds were also used at various concentrations (5–640 μM) with 20 ng of recombinant PfUDG and 10 pmol ^32P-labelled single stranded oligo-U in the standard reaction buffer at 37°C for 20 min. The same 0.4% (v/v final concentration) of DMSO was used as solvent control to determine its effects on enzyme activity. The dose–response curves of relative activities of PfUDG and various compound concentrations were generated, and half-maximal inhibitory concentration (IC50), the concentration of compound to inhibit enzyme activity by 50%, was obtained using SigmaPlot 12.0.

[1] = Cytotoxicity test, MTT colorimetric assay; assay type: cell-based; details: human, HepG2 cells
Protocol: The uracil-derived compounds showing inhibitory effects on PfUDG were assayed for cytotoxicity to human hepatocyte carcinoma cell line ATCC HB 8665 (HepG2) by in vitro cytotoxicity test. The methylthiazol tetrazolium (MTT)-dye based colorimetric microtitration assay was used for detecting cell survival based on the metabolism of tetrazolium to formazan by viable cells. The OD of formazan was measured by a Molecular Devices Microplate Reader (Molecular Devices, CA, USA) at a wavelength of 570 nm. The OD570 represented the cell survival, and the percentage of cell survival at each compound concentration was determined by comparing with the OD570 of negative control lacking compounds. The dose–response curves of % cell survival, and compound concentrations and IC50 were obtained. IC50 representing the concentration of compounds providing 50% cell survival indicated the cytotoxicity of compounds.

P. falciparum K1 strain = experiment: Inhibition of parasite growth in vitro, SYBR Green I based assay; assay type: cell-based; details: Plasmodium falciparum, synchronized ring stage K1 strain
Protocol: The synchronized ring stage of P. falciparum K1 strain was prepared from mixed stage parasite culture by 5% D-sorbitol treatment. The ring stage parasite was then mixed with culture medium containing RPMI 1640 supplemented with 10% human serum. Various concentrations of each uracil-derived compound were tested at 2-fold serial dilutions in triplicate. Their inhibitory effects on parasite growth were determined by SYBR Green I based assay. The fluorescent intensity was measured by Varioskan Flash Multimode Reader (Thermo Scientific, Vantaa, Finland) with excitation and emission wavelengths of 485 and 535 nm, respectively. The percentage of fluorescent intensity at each compound concentration compared with negative control was indicative of the parasite growth. The dose–response curves of fluorescent intensity and compound concentrations were generated, and IC50, the concentration of compound to inhibit parasite growth by 50%, was obtained using SigmaPlot 12.0.

HSV-1 UDG = system: HSV-1 UDG; parameters: method as in PMID 8391260; details: HSV-1 UDG purified from HSV-1-infected HeLa cells; cited from earlier work
native PfUDG = experiment: Inhibition of native PfUDG activity by UGI (32P-labelled oligo-U glycosylase assay); assay type: biochemical, Plasmodium falciparum; details: 1:1 molar ratio of PfUDG and UGI
Protocol: as §1, with “substrate. […]” for “substrate.”

[2] = listed as uracil glycosylase inhibitor protein

Chain of recombinant PfUDG (Q8ILU6 whole entry P157T): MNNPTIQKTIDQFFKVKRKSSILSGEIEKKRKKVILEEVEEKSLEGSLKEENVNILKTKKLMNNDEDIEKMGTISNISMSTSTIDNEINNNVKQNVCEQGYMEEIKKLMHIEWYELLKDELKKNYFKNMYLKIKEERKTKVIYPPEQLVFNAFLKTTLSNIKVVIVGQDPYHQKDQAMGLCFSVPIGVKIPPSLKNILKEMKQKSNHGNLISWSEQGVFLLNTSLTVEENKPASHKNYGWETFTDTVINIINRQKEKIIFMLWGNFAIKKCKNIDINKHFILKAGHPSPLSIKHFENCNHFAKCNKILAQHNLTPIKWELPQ

Molecule	IC50 (recombinant PfUDG)	IC50 (P. falciparum K1 strain)	IC50 (HSV-1 UDG)	other results
CCCCCCCCc1ccc(Nc2cc(=O)[nH]c(=O)[nH]2)cc1 [6-(4-n-octylanilino)uracil, 6-(4-n-Octylanilino)uracil]	–	–	–	IC50 (human UDG): > 300 µM
O=c1cc(NNc2ccccc2)[nH]c(=O)[nH]1 [compound 2, 6-(Phenylhydrazino)uracil]	77.5 µM	12.8 µM	–	IC50 [1]: 27.5 ± 4.58 µM
CCCCCCCc1ccc(Nc2cc(=O)[nH]c(=O)[nH]2)cc1 [compound 3, 6-(p-n-Heptylanilino)uracil]	> 400 µM	5 µM	20 µM	–
Cc1ccc(Nc2cc(=O)[nH]c(=O)[nH]2)cc1 [compound 4, 6-(4-Methylanilino)uracil]	> 400 µM	7.1 µM	–	–
CCCc1ccc(Nc2cc(=O)[nH]c(=O)[nH]2)cc1 [compound 5, 6-(p-n-Propylanilino)uracil]	> 400 µM	7.9 µM	–	–
O=c1cc[nH]c(=O)[nH]1 [compound 6, Uracil]	> 400 µM	10 µM	–	–
CCCCc1ccc(Nc2cc(=O)[nH]c(=O)[nH]2)cc1 [compound 7, 6-(p-n-Butylanilino)uracil]	> 400 µM	10 µM	150 µM	–
CCc1cc(Nc2cc(=O)n(CCCCO)c(=O)[nH]2)ccc1C [compound 8, 3-(4-Hydroxybutyl)-6-(3-ethyl-4-methylanilino)uracil]	> 400 µM	10.2 µM	–	–
CCCCCc1ccc(Nc2cc(=O)[nH]c(=O)[nH]2)cc1 [compound 9, 6-(p-n-Pentylanilino)uracil]	> 400 µM	10.5 µM	30 µM	–
CC(C)CCc1ccc(Nc2cc(=O)[nH]c(=O)[nH]2)cc1 [compound 10, 6-(p-i-Pentylanilino)uracil]	> 400 µM	11 µM	140 µM	–
CC(C)c1ccc(Nc2cc(O)nc(O)n2)cc1 [compound 11, 6-(p-i-Propylanilino)uracil]	> 400 µM	12.6 µM	–	–
CC(C)Cc1ccc(Nc2cc(=O)[nH]c(=O)[nH]2)cc1 [compound 12, 6-(p-i-Butylanilino)uracil]	> 400 µM	16.5 µM	–	–
B1	–	–	–	Inhibitory effect of UGI on native PfUDG (native PfUDG): completely inhibited; Inhibitory effect of UGI on native PfUDG (native PfUDG; [2]): inhibited; Inhibitory effect of UGI on recombinant PfUDG (recombinant PfUDG): completely inhibited; Inhibitory effect of UGI on recombinant PfUDG (recombinant PfUDG; [2]): inhibited
